Among the data in ChEMBL document CHEMBL1156987, “Novel azalides derived from 16-membered macrolides. III. Azalides modified at the C-15 and 4'' positions: Improved antibacterial activities” (Bioorg Med Chem, 2010) are MIC values, retold here.

Molecules are shown by their SMILES. ≈ marks a conversion by molar mass, not a printed value. Bounds are passed on as bounds.

Holding throughout (assay type): functional
Test [1] deals with Streptococcus pyogenes. Kind of test: Antibacterial activity against Streptococcus pyogenes 2 expressing constitutive ermB methylase after 20 hrs by agar dilution method. Particulars: Streptococcus pyogenes, 2, 20 h. For orientation: In agar dilution, organisms are placed on agar that contains the substance at set levels.
Test [2] deals with Streptococcus pneumoniae. Put plainly: Antibacterial activity against Streptococcus pneumoniae 9 expressing inducible ermB methylase after 20 hrs by agar dilution method. Particulars: Streptococcus pneumoniae, 9, 20 h.
For test [3], the system named is Streptococcus pneumoniae. Put plainly: Antibacterial activity against Streptococcus pneumoniae 7 expressing constitutive ermB methylase after 20 hrs by agar dilution method. To be noted: Streptococcus pneumoniae, 7, 20 h.
The subject of test [4] is Streptococcus pneumoniae. Put plainly: Antibacterial activity against Streptococcus pneumoniae 11 expressing mefA efflux pump after 20 hrs by agar dilution method. To be noted: Streptococcus pneumoniae, 11, 20 h.
Test [5] deals with Streptococcus pneumoniae. Kind of test: Antibacterial activity against Streptococcus pneumoniae 8 expressing inducible ermB methylase after 20 hrs by agar dilution method. Particulars: Streptococcus pneumoniae, 8, 20 h.
Test [6] relates to Haemophilus influenzae. Kind of test: Antibacterial activity against Haemophilus influenzae 2 after 20 hrs by agar dilution method. To be noted: Haemophilus influenzae, 2, 20 h.
The subject of test [7] is Haemophilus influenzae. Kind of test: Antibacterial activity against Haemophilus influenzae 3 after 20 hrs by agar dilution method. Particulars: Haemophilus influenzae, 3, 20 h.
In test [8] the test system is Streptococcus pneumoniae. Kind of test: Antibacterial activity against Streptococcus pneumoniae DP1 type 1 after 20 hrs by agar dilution method. To be noted: DP1 type1, 20 h.
The test system of test [9] is Streptococcus pyogenes. Put plainly: Antibacterial activity against Streptococcus pyogenes 3 expressing mefA efflux pump after 20 hrs by agar dilution method. Particulars: Streptococcus pyogenes, 3, 20 h.
Test [10] deals with Haemophilus influenzae. Kind of test: Antibacterial activity against Haemophilus influenzae 1 after 20 hrs by agar dilution method. To be noted: Haemophilus influenzae, 1, 20 h.
The test system of test [11] is Streptococcus pneumoniae. Put plainly: Antibacterial activity against Streptococcus pneumoniae 5 expressing constitutive ermB methylase after 20 hrs by agar dilution method. Particulars: Streptococcus pneumoniae, 5, 20 h.
The test system of the next test is Staphylococcus aureus. Put plainly: Antibacterial activity against Staphylococcus aureus 209P JC1 after 20 hrs by agar dilution method. Particulars: 209P JC1, 20 h.
Test [12] deals with Streptococcus pneumoniae. Put plainly: Antibacterial activity against Streptococcus pneumoniae 10 expressing mefA efflux pump after 20 hrs by agar dilution method. Particulars: Streptococcus pneumoniae, 10, 20 h.
The test system of test [13] is Streptococcus pneumoniae. Kind of test: Antibacterial activity against Streptococcus pneumoniae 6 expressing constitutive ermB methylase and mefA after 20 hrs by agar dilution method. Particulars: Streptococcus pneumoniae, 6, 20 h.
The test system of test [14] is Streptococcus pyogenes. Kind of test: Antibacterial activity against Streptococcus pyogenes Cook after 20 hrs by agar dilution method.

For `CCNC(=O)O[C@H]1[C@H](C)O[C@@H](O[C@H]2[C@H](N(C)C)[C@@H](O)[C@H](O[C@H]3[C@@H](CC=O)C[C@@H](C)[C@@H](O)CN(C)CCC[C@H](C/C=C/c4ccc(N)nc4)OC(=O)C[C@@H](O)[C@@H]3OC)O[C@@H]2C)C[C@@]1(C)OC(=O)CC`, the MIC in the test on Streptococcus pyogenes [1] was 16 µg/mL (≈ 16.6 µM); with Streptococcus pneumoniae [2] it was 0.25 µg/mL (≈ 0.259 µM); with Streptococcus pneumoniae [3] it was 4 µg/mL (≈ 4.14 µM); with Streptococcus pneumoniae [4], 0.13 µg/mL (≈ 0.135 µM); against Streptococcus pneumoniae [5], 0.25 µg/mL (≈ 0.259 µM); with Haemophilus influenzae [6], 8 µg/mL (≈ 8.28 µM). For the same compound, the MIC with Haemophilus influenzae [7] is 16 µg/mL (≈ 16.6 µM); against Streptococcus pneumoniae [8] it was 0.03 µg/mL (≈ 0.0311 µM); against Streptococcus pyogenes [9], 0.13 µg/mL (≈ 0.135 µM); in the test with Haemophilus influenzae [10] it was 4 µg/mL (≈ 4.14 µM); with Streptococcus pneumoniae [11] it was 4 µg/mL (≈ 4.14 µM); against Staphylococcus aureus, 2 µg/mL (≈ 2.07 µM). The MIC in the test with Streptococcus pneumoniae [12] amounted to 0.06 µg/mL (≈ 0.0621 µM); against Streptococcus pneumoniae [13], 4 µg/mL (≈ 4.14 µM); in the test with Streptococcus pyogenes [14], 0.13 µg/mL (≈ 0.135 µM).

Turning to `CCNC(=O)O[C@H]1[C@H](C)O[C@@H](O[C@H]2[C@H](N(C)C)[C@@H](O)[C@H](O[C@H]3[C@@H](CC=O)C[C@@H](C)[C@@H](O)CN(C)CCC[C@H](C/C=C/c4cncc5ccccc45)OC(=O)C[C@@H](O)[C@@H]3OC)O[C@@H]2C)C[C@@]1(C)OC(=O)CC`, the MIC in the test with Streptococcus pyogenes [1] was 32 µg/mL (≈ 32 µM); in the test on Streptococcus pneumoniae [2], 0.06 µg/mL (≈ 0.0599 µM); with Streptococcus pneumoniae [3], 4 µg/mL (≈ 4 µM); with Streptococcus pneumoniae [4], 0.015 µg/mL (≈ 0.015 µM); with Streptococcus pneumoniae [5] it was 0.06 µg/mL (≈ 0.0599 µM); in the test on Haemophilus influenzae [6], 4 µg/mL (≈ 4 µM). Besides, the MIC with Haemophilus influenzae [7] is 4 µg/mL (≈ 4 µM); in the test on Streptococcus pneumoniae [8] it was under 0.008 µg/mL; against Streptococcus pyogenes [9] it was 0.13 µg/mL (≈ 0.13 µM); in the test with Haemophilus influenzae [10], 2 µg/mL (≈ 2 µM); against Streptococcus pneumoniae [11], 2 µg/mL (≈ 2 µM); in the test with Staphylococcus aureus, 0.25 µg/mL (≈ 0.25 µM). The MIC came out at 0.015 µg/mL (≈ 0.015 µM) against Streptococcus pneumoniae [12], 4 µg/mL (≈ 4 µM) against Streptococcus pneumoniae [13] and 0.03 µg/mL (≈ 0.03 µM) in the test on Streptococcus pyogenes [14].

For the compound `CCNC(=O)O[C@H]1[C@H](C)O[C@@H](O[C@H]2[C@H](N(C)C)[C@@H](O)[C@H](O[C@H]3[C@@H](CC=O)C[C@@H](C)[C@@H](O)CN(C)CCC[C@H](C/C=C/c4cccnc4)OC(=O)C[C@@H](OC(=O)CC)[C@@H]3OC)O[C@@H]2C)C[C@@]1(C)OC(=O)CC`, the MIC in the test on Streptococcus pyogenes [1] was over 64 µg/mL; against Streptococcus pneumoniae [2], 0.5 µg/mL (≈ 0.496 µM); against Streptococcus pneumoniae [3], 32 µg/mL (≈ 31.8 µM); with Streptococcus pneumoniae [4], 0.06 µg/mL (≈ 0.0596 µM); in the test on Streptococcus pneumoniae [5] it was 0.5 µg/mL (≈ 0.496 µM); against Haemophilus influenzae [6] it was 16 µg/mL (≈ 15.9 µM). In addition, the MIC against Haemophilus influenzae [7] was found to be 32 µg/mL (≈ 31.8 µM); against Streptococcus pneumoniae [8], 0.015 µg/mL (≈ 0.0149 µM); against Streptococcus pyogenes [9], 0.5 µg/mL (≈ 0.496 µM); against Haemophilus influenzae [10] it was 4 µg/mL (≈ 3.97 µM); against Streptococcus pneumoniae [11] it was 32 µg/mL (≈ 31.8 µM); with Staphylococcus aureus it was 0.5 µg/mL (≈ 0.496 µM). The figures for the MIC in the test on Streptococcus pneumoniae [12], in the test on Streptococcus pneumoniae [13] and in the test on Streptococcus pyogenes [14] were 0.06 µg/mL (≈ 0.0596 µM), 32 µg/mL (≈ 31.8 µM) and 0.13 µg/mL (≈ 0.129 µM), respectively.

Consider `CCCC(=O)O[C@H]1[C@H](C)O[C@@H](O[C@H]2[C@H](N(C)C)[C@@H](O)[C@H](O[C@H]3[C@@H](CC=O)C[C@@H](C)[C@@H](O)/C=C/C=C/C[C@@H](C)OC(=O)C[C@@H](O)[C@@H]3OC)O[C@@H]2C)C[C@@]1(C)OC(=O)CC` [ROKITAMYCIN], for which the MIC is over 128 µg/mL against Streptococcus pyogenes [1]; 1 µg/mL (≈ 1.21 µM) in the test on Streptococcus pneumoniae [2]; over 128 µg/mL with Streptococcus pneumoniae [3]; 0.06 µg/mL (≈ 0.0725 µM) in the test with Streptococcus pneumoniae [4]; 1 µg/mL (≈ 1.21 µM) against Streptococcus pneumoniae [5]; 8 µg/mL (≈ 9.66 µM) in the test with Haemophilus influenzae [6]. For the same compound, the MIC was 8 µg/mL (≈ 9.66 µM) in the test with Haemophilus influenzae [7]; 0.03 µg/mL (≈ 0.0362 µM) against Streptococcus pneumoniae [8]; 0.13 µg/mL (≈ 0.157 µM) in the test on Streptococcus pyogenes [9]; 2 µg/mL (≈ 2.42 µM) against Haemophilus influenzae [10]; over 128 µg/mL against Streptococcus pneumoniae [11]; 0.13 µg/mL (≈ 0.157 µM) in the test on Staphylococcus aureus. Further, the MIC against Streptococcus pneumoniae [12] is 0.06 µg/mL (≈ 0.0725 µM); against Streptococcus pneumoniae [13], over 128 µg/mL; in the test with Streptococcus pyogenes [14], 0.06 µg/mL (≈ 0.0725 µM).

As to `CCNC(=O)O[C@H]1[C@H](C)O[C@@H](O[C@H]2[C@H](N(C)C)[C@@H](O)[C@H](O[C@H]3[C@@H](CC=O)C[C@@H](C)[C@@H](O)CN(C)CCC[C@H](C/C=C/c4ccnc5ccccc45)OC(=O)C[C@@H](OC(=O)CC)[C@@H]3OC)O[C@@H]2C)C[C@@]1(C)OC(=O)CC`, the MIC is over 128 µg/mL against Streptococcus pyogenes [1]; 0.5 µg/mL (≈ 0.473 µM) against Streptococcus pneumoniae [2]; 64 µg/mL (≈ 60.5 µM) against Streptococcus pneumoniae [3]; 0.03 µg/mL (≈ 0.0284 µM) with Streptococcus pneumoniae [4]; 0.5 µg/mL (≈ 0.473 µM) with Streptococcus pneumoniae [5]; 32 µg/mL (≈ 30.3 µM) against Haemophilus influenzae [6]. The MIC in the test on Haemophilus influenzae [7] worked out at 16 µg/mL (≈ 15.1 µM); in the test with Streptococcus pneumoniae [8] it was 0.015 µg/mL (≈ 0.0142 µM); in the test with Streptococcus pyogenes [9], 0.25 µg/mL (≈ 0.236 µM); in the test with Haemophilus influenzae [10], 8 µg/mL (≈ 7.57 µM); in the test with Streptococcus pneumoniae [11], 64 µg/mL (≈ 60.5 µM); against Staphylococcus aureus, 0.5 µg/mL (≈ 0.473 µM). Besides, the figures for the MIC against Streptococcus pneumoniae [12], against Streptococcus pneumoniae [13] and against Streptococcus pyogenes [14] were 0.03 µg/mL (≈ 0.0284 µM), 64 µg/mL (≈ 60.5 µM) and 0.06 µg/mL (≈ 0.0567 µM), respectively.
